How the values were obtained:
[1] = Plasma concentration of propofol derived from the test prodrug in rats (Table I); assay type: in vivo; conditions: rat; for F_Cmax / F_AUCt: relative to 5 mg/kg IV; for AUCt / Cmax: propofol in plasma; for AUCt: 0-360 min
Procedure: Upon administration, the test prodrug is converted in the body into propofol, its pharmacologically active metabolite. The pharmacokinetic profile, i.e. the blood plasma concentration of propofol derived from the test prodrug, was assessed in a separate experiment. Male Sprague-Dawley Rats (225-250 g) were obtained with indwelling jugular or intraduodenal catheters (Hilltop Labs, PA). On the day of testing, control blood samples were taken from the jugular vein prior to dosing. O-phosphonooxymethyl propofol disodium salt was then dosed in different concentrations in groups of 2-3 rats. The test prodrug was administered either by the oral, intravenous or intraduodenal routes. Blood samples (0.5 ml) were taken at 5, 15, 30, 45, 60, 120, 240 and 360 min after administration of the test prodrug. Blood samples were centrifuged to obtain plasma and stored frozen until analysis. The outcome of this experiment is depicted in the following table I:
“Cmax” is the mean maximum plasma concentration; “F Cmax” is the calculated mean bioavailability of the Cmax for propofol generated from the tested prodrug (as administered via various routes and at various doses), relative to an intravenous dose of 5 mg/kg at Cmax; “AUCt” is the mean area under the curve from time 0 to the last measured time point (360 min); “F AUCt” is the calculated mean bioavailability for AUCt. “Bioavailability” is the quotient, expressed as per cent, of the Cmax or AUCt for intragastric (po) or intraduodenal (GB) administration, and the Cmax or AUCt for a 5 mg/kg intravenous dose, adjusted for dose. […] This transformation provides a reasonable measure to compare the systemic exposure to propofol generated from the test compound (after administration of various doses by various routes) to systemic propofol exposure after I.V. administration of the prodrug.

[2] = Crossover study of plasma bioavailability of propofol in human volunteers after oral or intraduodenal prodrug (Table II); assay type: in vivo; conditions: for Blood plasma concentration of propofol, Mean / Blood plasma concentration of propofol, Median: human volunteers
Source text: Blood plasma samples were drawn at various time points post administration and frozen until chromatographic analysis of propofol concentrations. Plasma propofol concentrations at various time points after administration are given for both routes of administration in Table II, below: […]

[3] = ID (intraduodenal) 400 mg, 0.0 hr
[4] = ID (intraduodenal) 400 mg, 0.08 hr
[5] = ID (intraduodenal) 400 mg, 0.17 hr
[6] = ID (intraduodenal) 400 mg, 0.33 hr
[7] = ID (intraduodenal) 400 mg, 0.50 hr
[8] = ID (intraduodenal) 400 mg, 0.75 hr
[9] = ID (intraduodenal) 400 mg, 1.0 hr
[10] = ID (intraduodenal) 400 mg, 1.5 hr
[11] = ID (intraduodenal) 400 mg, 2.0 hr
[12] = ID (intraduodenal) 400 mg, 4.0 hr
[13] = ID (intraduodenal) 400 mg, 6.0 hr
[14] = ID (intraduodenal) 400 mg, 9.0 hr

## CC(C)c1cccc(C(C)C)c1OCOP(=O)([O-])[O-].[Na+].[Na+] [O-phosphonooxymethyl propofol disodium salt]
[1]; Gb (intraduodenal) 1 mg/kg
  F_Cmax: 14.4%
[1]; Gb (intraduodenal) 3 mg/kg
  F_AUCt: 9.34%
  F_Cmax: 27.3%
  AUCt: 0.389 µg·min/mL
  Cmax: 46.8 ng/mL
[1]; Gb (intraduodenal) 10 mg/kg
  F_AUCt: 27.4%
  F_Cmax: 35.0%
  AUCt: 3.81 µg·min/mL
  Cmax: 200 ng/mL
[1]; Gb (intraduodenal) 30 mg/kg
  F_AUCt: 55%
  F_Cmax: 74.0%
  AUCt: 22.9 µg·min/mL
  Cmax: 1270 ng/mL
[1]; Gb (intraduodenal) 100 mg/kg
  F_AUCt: 161%
  F_Cmax: 102%
  AUCt: 223 µg·min/mL
  Cmax: 5840 ng/mL
[1]; I.V. 5 mg/kg
  F_AUCt: 100%
  F_Cmax: 100%
  AUCt: 6.94 µg·min/mL
  Cmax: 286 ng/mL
[1]; I.V. 50 mg/kg
  F_AUCt: 117.9%
  F_Cmax: 86.7%
  AUCt: 81.8 µg·min/mL
  Cmax: 2480 ng/mL
[1]; gastric bypass
  bioavailability of propofol liberated from the prodrug (in words): markedly enhanced
[1]; p.o. 20 mg/kg
  F_AUCt: 13.3%
  F_Cmax: 3.72%
  AUCt: 3.70 µg·min/mL
  Cmax: 42.6 ng/mL
[1]; p.o. 50 mg/kg
  F_AUCt: 22.2%
  F_Cmax: 4.65%
  AUCt: 15.4 µg·min/mL
  Cmax: 133 ng/mL
[1]; p.o. 100 mg/kg
  F_Cmax: 9.20%
  AUCt: 73.8 µg·min/mL
  Cmax: 526 ng/mL
[1]; p.o. 100 mg/kg, disodium salt
  F_AUCt: 53.2%
[1]; p.o. 100 mg/kg, listed as test compound, disodium salt
  F_AUCt: above 50%
[1]; p.o. 20, 50 and 100 mg/kg
  Cmax bioavailability of propofol (F Cmax, in words): limited at all tested dose levels
[1]; Gb (gastric bypass, intraduodenal) 1 mg/kg
  Cmax: 8.26 ng/mL
[2]; [3]
  Blood plasma concentration of propofol, Mean: 0.0 ng/mL
  Blood plasma concentration of propofol, Median: 0.0 ng/mL
[2]; [4]
  Blood plasma concentration of propofol, Mean: 194.1 ng/mL
  Blood plasma concentration of propofol, Median: 144.5 ng/mL
[2]; [5]
  Blood plasma concentration of propofol, Mean: 247.6 ng/mL
  Blood plasma concentration of propofol, Median: 210.9 ng/mL
[2]; [6]
  Blood plasma concentration of propofol, Mean: 272.0 ng/mL
  Blood plasma concentration of propofol, Median: 277.3 ng/mL
[2]; [7]
  Blood plasma concentration of propofol, Mean: 178.6 ng/mL
  Blood plasma concentration of propofol, Median: 211.3 ng/mL
[2]; [8]
  Blood plasma concentration of propofol, Mean: 76.5 ng/mL
  Blood plasma concentration of propofol, Median: 52.3 ng/mL
[2]; [9]
  Blood plasma concentration of propofol, Mean: 47.7 ng/mL
  Blood plasma concentration of propofol, Median: 45.3 ng/mL
[2]; [10]
  Blood plasma concentration of propofol, Mean: 25.4 ng/mL
  Blood plasma concentration of propofol, Median: 24.7 ng/mL
[2]; [11]
  Blood plasma concentration of propofol, Mean: 16.4 ng/mL
  Blood plasma concentration of propofol, Median: 14.2 ng/mL
[2]; [12]
  Blood plasma concentration of propofol, Mean: 5.0 ng/mL
  Blood plasma concentration of propofol, Median: 5.6 ng/mL
[2]; [13]
  Blood plasma concentration of propofol, Mean: 0.0 ng/mL
  Blood plasma concentration of propofol, Median: 0.0 ng/mL
[2]; [14]
  Blood plasma concentration of propofol, Mean: 0.0 ng/mL
  Blood plasma concentration of propofol, Median: 0.0 ng/mL
[2]; Oral 400 mg, 0.0 hr
  Blood plasma concentration of propofol, Mean: 0.0 ng/mL
  Blood plasma concentration of propofol, Median: 0.0 ng/mL
[2]; Oral 400 mg, 0.08 hr
  Blood plasma concentration of propofol, Mean: 6.6 ng/mL
  Blood plasma concentration of propofol, Median: 0.0 ng/mL
[2]; Oral 400 mg, 0.17 hr
  Blood plasma concentration of propofol, Mean: 103.9 ng/mL
  Blood plasma concentration of propofol, Median: 43.6 ng/mL
[2]; Oral 400 mg, 0.33 hr
  Blood plasma concentration of propofol, Mean: 197.2 ng/mL
  Blood plasma concentration of propofol, Median: 153.6 ng/mL
[2]; Oral 400 mg, 0.50 hr
  Blood plasma concentration of propofol, Mean: 144.1 ng/mL
  Blood plasma concentration of propofol, Median: 151.4 ng/mL
[2]; Oral 400 mg, 0.75 hr
  Blood plasma concentration of propofol, Mean: 75.0 ng/mL
  Blood plasma concentration of propofol, Median: 71.1 ng/mL
[2]; Oral 400 mg, 1.0 hr
  Blood plasma concentration of propofol, Mean: 53.2 ng/mL
  Blood plasma concentration of propofol, Median: 37.6 ng/mL
[2]; Oral 400 mg, 1.5 hr
  Blood plasma concentration of propofol, Mean: 32.3 ng/mL
  Blood plasma concentration of propofol, Median: 22.8 ng/mL
[2]; Oral 400 mg, 2.0 hr
  Blood plasma concentration of propofol, Mean: 19.0 ng/mL
  Blood plasma concentration of propofol, Median: 18.8 ng/mL
[2]; Oral 400 mg, 4.0 hr
  Blood plasma concentration of propofol, Mean: 6.2 ng/mL
  Blood plasma concentration of propofol, Median: 6.6 ng/mL
[2]; Oral 400 mg, 6.0 hr
  Blood plasma concentration of propofol, Mean: 0.9 ng/mL
  Blood plasma concentration of propofol, Median: 0.0 ng/mL
[2]; Oral 400 mg, 9.0 hr
  Blood plasma concentration of propofol, Mean: 0.9 ng/mL
  Blood plasma concentration of propofol, Median: 0.0 ng/mL
[2]; intraduodenal 400 mg, human subjects
  plasma propofol after intraduodenal instillation compared to oral (in words): appreciably higher levels, and at earlier timepoints
[2]; oral 400 mg, human subjects
  plasma propofol after oral administration (in words): appreciable plasma concentrations of propofol
[2]; some values from four of the subjects, second, third and fourth timepoints, 400 mg
  plasma propofol concentrations above the upper limit of quantification: > 400 ng/mL

— patent US20070202158A1, “Methods Of Administering Water-Soluble Prodrugs Of Propofol For Extended Sedation” (MGI GP, Inc., priority 2003, published 2007)
